For data set [1], the system named is Salmonella typhimurium IID 971. As to the kind of experiment: Antibacterial activity (MIC), Salmonella typhimurium IID 971. It counts as cell-based. The note with it: Salmonella enterica; Salmonella typhimurium IID 971, Gram -; read-out: Minimum inhibitory concentration (MIC). Put shortly:
(§1)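 Read-out is the MIC, obtained by the standard Japan Society of Chemotherapy method from 1000 μg/ml standard solutions made in sterile water.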

Data set [2] has as its system Shigella sonnei EW-33. As to the kind of experiment: Antibacterial activity (MIC), Shigella sonnei EW-33. It counts as cell-based. Particulars: Shigella sonnei, EW33, Shigella sonnei EW-33, Gram -; read-out: Minimum inhibitory concentration (MIC). Put shortly:
as §1

Data set [3] concerns Staphylococcus epidermidis IAM-1296. As to the kind of experiment: Antibacterial activity (MIC), S. epidermidis IAM-1296. Particulars: Staphylococcus epidermidis, IAM1296, Staphylococcus epidermidis IAM-1296, Gram +; read-out: Minimum inhibitory concentration (MIC). In kind it is cell-based. Put shortly:
as §1

For data set [4], the system named is Acinetobacter calcoaceticus AC 54. As to the kind of experiment: Antibacterial activity (MIC), Acinetobacter calcoaceticus AC 54. It counts as cell-based. Particulars: Acinetobacter calcoaceticus, AC54, read-out: Minimum inhibitory concentration (MIC), Acinetobacter calcoaceticus AC 54, Gram -. The method in brief:
as §1

Data set [5] concerns Proteus vulgaris OX-19. As to the kind of experiment: Antibacterial activity (MIC), Proteus vulgaris OX-19. It counts as cell-based. The note with it: OX19; Proteus vulgaris OX-19, Gram -; read-out: Minimum inhibitory concentration (MIC). The method in brief: as §1
In data set [6] the test system is Escherichia coli KC-14. As to the kind of experiment: Antibacterial activity (MIC), E. coli KC-14. It counts as cell-based. The note with it: KC14; Escherichia coli KC-14, Gram -; read-out: Minimum inhibitory concentration (MIC). Put shortly: as §1
In data set [7] the test system is Staphylococcus aureus FDA 209P JC-1. As to the kind of experiment: Antibacterial activity (MIC), S. aureus FDA 209P JC-1. In kind it is cell-based. The note with it: FDA209P, read-out: Minimum inhibitory concentration (MIC). Put shortly:
as §1

A short description of data set [8]: Acute toxicity (Experiment 5). Particulars: mouse, in vivo, po, 2000 mg/kg. As for the experimental part: (§2) The compound (A) or (J) of the present invention was suspended in 1% (w/v) aqueous gum arabic to prepare a suspension in concentration of 100 mg/ml. The suspension was orally administered to ddY male mice (5 weeks age, weighing 20 to 25 g, 5 mice in each group), which had been fasted for 18 hours, at a rate of 2000 mg/kg body weight of the compound (A) or (J).

The nature of data set [9]: Low toxicity (Experiments 5 and 6). In kind it is in vivo, ddY male mice. Particulars: result in words. As for the experimental part: as §2
The compound (O) or (P) of the present invention was suspended in sterilized distilled water to prepare a suspension. The suspension was orally adminstered to ddY male mice (5 weeks age, weighing 20 to 25 g, 5 mice in each group), which had been fasted for 18 hours.

Data set [10] deals with Proteus mirabilis IFO 3849. As to the kind of experiment: Antibacterial activity (MIC), Proteus mirabilis IFO 3849. It counts as cell-based. Particulars: IFO3849; Proteus mirabilis IFO 3849, Gram -; read-out: Minimum inhibitory concentration (MIC). The method in brief:
as §1

The values that follow come from patent US4971967A, “Quinolinecarboxylic acid derivatives, antibacterial compositions and use” (Kanebo Ltd, priority 1989, dated 1990).

Structures are written as SMILES. Converted amounts (≈) assume the structure as drawn. Read-outs that look alike come from different tables or passages of the source.

Turning to `CN1CCN(c2c(F)cc3c(=O)c(C(=O)O)c4scc5n4c3c2N(C)C5)CC1` [Compound (A), 9,1-(Methylimino)methano-7-fluoro-8-(4-methyl-1-piperazinyl)-5-oxo-5H-thiazolo[3,2-a]quinoline-4-carboxylic acid], the MIC in [1] is 0.05 µg/mL (≈ 0.124 µM); in [2], 0.025 µg/mL (≈ 0.0621 µM); in data set [3], 0.05 µg/mL (≈ 0.124 µM); in [4] it was 0.025 µg/mL (≈ 0.0621 µM); in data set [5] it was 0.0125 µg/mL (≈ 0.0311 µM); in data set [6], 0.05 µg/mL (≈ 0.124 µM). In addition, the MIC in [7] (Staphylococcus aureus FDA 209P JC-1, Gram +) came out at 0.05 µg/mL (≈ 0.124 µM); in data set [10], 0.2 µg/mL (≈ 0.497 µM). For the same molecule, the death of mice result in [8] is “no death of mice was observed”. Also, the toxicity result in data set [9] is given as “low toxicity”.

Regarding `CCN1CCN(c2c(F)cc3c(=O)c(C(=O)O)c4scc5n4c3c2N(C)C5)CC1` [Compound (J), 9,1-(Methylimino)methano-7-fluoro-8-(4-ethyl-1-piperazinyl)-5-oxo-5H-thiazolo[3,2-a]quinoline-4-carboxylic acid], the MIC in data set [2] amounted to 0.05 µg/mL (≈ 0.12 µM); in data set [3] it was 0.1 µg/mL (≈ 0.24 µM); in data set [5] it was 0.025 µg/mL (≈ 0.06 µM); in data set [7] (Staphylococcus aureus) it was 0.05 µg/mL (≈ 0.12 µM); in data set [10], 0.39 µg/mL (≈ 0.936 µM). In addition, in [8], the death of mice result was “no death of mice was observed”. The toxicity entry in data set [9] is “low toxicity”.
